Holding throughout (type): biochemical
In assay [1] the target is MMP-13CD (catalytic domain of collagenase-3) (Homo sapiens, UniProt P45452). As to the kind of experiment: Thiopeptolide substrate hydrolysis inhibition assay, MMP-13CD. From the text:
(§1) Thiopeptolide substrates show virtually no decomposition or hydrolysis at or below neutral pH in the absence of a matrix metalloproteinase enzyme.

For assay [2], the target named is T1, MMP-1FL (full-length interstitial collagenase) (Homo sapiens, UniProt P03956).
T1 sequence (P03956 100-469): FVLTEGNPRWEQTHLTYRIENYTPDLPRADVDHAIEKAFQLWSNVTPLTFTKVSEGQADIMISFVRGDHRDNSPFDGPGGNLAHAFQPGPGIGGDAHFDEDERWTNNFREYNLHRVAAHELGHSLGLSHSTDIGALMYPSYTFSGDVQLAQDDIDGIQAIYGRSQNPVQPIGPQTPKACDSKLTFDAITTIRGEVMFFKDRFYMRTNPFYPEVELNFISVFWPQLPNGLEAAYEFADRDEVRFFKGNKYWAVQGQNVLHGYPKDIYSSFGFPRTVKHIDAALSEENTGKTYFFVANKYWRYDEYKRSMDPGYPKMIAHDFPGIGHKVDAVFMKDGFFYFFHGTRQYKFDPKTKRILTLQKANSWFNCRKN
In words: Thiopeptolide substrate hydrolysis inhibition assay, MMP-1FL. The settings on record: Table II; micromolar concentration; HEPES pH 7.0.
Source text: as §1

For assay [3], the target named is T2, MMP-2FL (full length Gelatinase A) (Homo sapiens, UniProt P08253).
T2 sequence (P08253 110-660): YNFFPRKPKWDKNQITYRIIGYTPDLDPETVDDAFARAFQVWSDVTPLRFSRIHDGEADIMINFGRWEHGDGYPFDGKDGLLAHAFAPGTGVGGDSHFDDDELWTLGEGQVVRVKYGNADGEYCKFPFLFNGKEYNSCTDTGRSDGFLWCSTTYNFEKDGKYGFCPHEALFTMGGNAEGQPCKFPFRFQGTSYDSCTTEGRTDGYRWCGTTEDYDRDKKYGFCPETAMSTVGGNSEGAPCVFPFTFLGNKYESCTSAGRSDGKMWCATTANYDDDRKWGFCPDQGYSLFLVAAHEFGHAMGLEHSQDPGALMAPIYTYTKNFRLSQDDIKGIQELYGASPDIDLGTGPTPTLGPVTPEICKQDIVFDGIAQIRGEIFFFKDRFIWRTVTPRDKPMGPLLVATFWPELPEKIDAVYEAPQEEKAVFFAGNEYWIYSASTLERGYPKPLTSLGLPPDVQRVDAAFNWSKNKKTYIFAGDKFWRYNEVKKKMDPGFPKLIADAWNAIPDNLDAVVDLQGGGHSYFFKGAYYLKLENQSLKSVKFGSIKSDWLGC
In words: Thiopeptolide substrate hydrolysis inhibition assay, MMP-2FL. The settings on record: Table II; micromolar concentration; HEPES pH 7.0.
Source text: as §1

Assay [4] deals with MMP-3CD (catalytic domain of stromelysin-1) (Homo sapiens, UniProt P08254). As to the kind of experiment: Thiopeptolide substrate hydrolysis inhibition assay, MMP-3CD. The settings on record: Table II; micromolar concentration; MES buffer pH 6.0. How it is done: as §1
Sequence of MMP-3CD (catalytic domain of stromelysin-1) (P08254 100-272 limits assumed): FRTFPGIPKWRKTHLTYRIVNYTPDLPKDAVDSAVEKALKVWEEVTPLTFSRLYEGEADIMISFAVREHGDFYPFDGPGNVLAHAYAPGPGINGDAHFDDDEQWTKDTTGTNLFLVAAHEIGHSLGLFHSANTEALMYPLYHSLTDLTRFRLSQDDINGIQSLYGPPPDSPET
It should be appreciated that the assay buffer used with MMP-3CD is 50 mM N-morpholinoethanesulfonate (“MES”) at pH 6.0 rather than the HEPES buffer at pH 7.0 described above.

The target in assay [5] is T3, MMP-7FL (full-length matrilysin) (Homo sapiens, UniProt P09237).
T3 sequence (P09237 95-267): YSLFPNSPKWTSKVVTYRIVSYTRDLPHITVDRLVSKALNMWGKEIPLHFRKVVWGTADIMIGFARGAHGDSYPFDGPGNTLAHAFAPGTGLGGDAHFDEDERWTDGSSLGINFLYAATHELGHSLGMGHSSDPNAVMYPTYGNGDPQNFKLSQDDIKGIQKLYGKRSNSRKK
In words: Thiopeptolide substrate hydrolysis inhibition assay, MMP-7FL. The settings on record: Table II; micromolar concentration; HEPES pH 7.0.
Source text: as §1

For assay [6], the target named is MMP-9FL (full-length Gelatinase B) (Homo sapiens, UniProt P14780). As to the kind of experiment: Thiopeptolide substrate hydrolysis inhibition assay, MMP-9FL. The settings on record: Table II; micromolar concentration; HEPES pH 7.0.
Sequence of MMP-9FL (full-length Gelatinase B) (P14780 94-707, species assumed): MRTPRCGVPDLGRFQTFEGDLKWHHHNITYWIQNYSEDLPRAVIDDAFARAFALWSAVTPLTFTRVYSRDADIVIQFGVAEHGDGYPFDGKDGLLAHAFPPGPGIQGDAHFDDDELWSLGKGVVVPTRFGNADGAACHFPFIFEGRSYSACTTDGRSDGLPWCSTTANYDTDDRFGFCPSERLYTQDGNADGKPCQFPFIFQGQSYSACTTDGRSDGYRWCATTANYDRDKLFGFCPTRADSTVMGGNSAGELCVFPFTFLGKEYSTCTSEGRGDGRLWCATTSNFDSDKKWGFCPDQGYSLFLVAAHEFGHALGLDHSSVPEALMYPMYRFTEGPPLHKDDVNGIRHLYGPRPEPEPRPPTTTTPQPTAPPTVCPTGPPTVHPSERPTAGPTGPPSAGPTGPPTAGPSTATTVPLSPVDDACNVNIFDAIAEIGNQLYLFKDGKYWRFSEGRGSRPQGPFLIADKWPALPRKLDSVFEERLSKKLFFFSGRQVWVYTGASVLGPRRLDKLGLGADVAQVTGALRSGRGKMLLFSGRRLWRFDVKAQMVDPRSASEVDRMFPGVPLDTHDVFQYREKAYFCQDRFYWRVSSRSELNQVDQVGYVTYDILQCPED
Source text: as §1

Another assay deals with T4, MMP-12CD (Homo sapiens, UniProt P39900).
T4 construct: 12CD
T4 sequence (P39900 106-263 limits assumed): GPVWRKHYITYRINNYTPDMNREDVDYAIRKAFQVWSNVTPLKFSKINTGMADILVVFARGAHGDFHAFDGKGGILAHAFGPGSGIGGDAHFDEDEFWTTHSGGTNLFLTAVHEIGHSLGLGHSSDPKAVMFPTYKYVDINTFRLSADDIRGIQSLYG
In words: Thiopeptolide substrate hydrolysis inhibition assay, MMP-12CD. The settings on record: Table II; micromolar concentration; HEPES pH 7.0.
Source text: as §1

Assay [7] addresses MMP-14CD (catalytic domain of MMP-14) (Homo sapiens, UniProt P50281). As to the kind of experiment: Thiopeptolide substrate hydrolysis inhibition assay, MMP-14CD. The settings on record: Table II; micromolar concentration; HEPES pH 7.0.
Source text: as §1

[8] abbreviates: Table II, micromolar concentration, HEPES pH 7.0, read-out: IC50 MMP-13CD.
Where [9] appears, read: Table I, thiopeptolide substrate, HEPES pH 7.0, 22° C., read-out: MMP-13CD IC50.

Consider 9 compounds from patent publication US20030004172A1, “Fused pyrimidinone matrix metalloproteinase inhibitors” (priority 2001, published 2003).

Read-outs that look alike come from different tables or passages of the source.

With `COc1cccc(CNC(=O)c2cc3c(=O)n(Cc4ccc(S(=O)(=O)N5CCC(C)CC5)cc4)c(=O)n(C)c3s2)c1` [Example 47, 1-Methyl-3-[4-(4-methyl-piperidine-1-sulfonyl)-benzyl]-2,4-dioxo-1,2,3,4-tetrahydro-thieno[2,3-d]pyrimidine-6-carboxylic acid 3-methoxy-benzylamide], the IC50 came out at 0.038 µM in assay [1] (setting [8]); 30 µM in assay [2]; 30 µM in assay [3]; 30 µM in assay [4]; 14 µM in assay [5]; 30 µM in assay [6]. Also, the IC50 was 30 µM on MMP-12CD and 10 µM in assay [7].
For `COc1ccc(CNC(=O)c2cc3c(=O)n(Cc4cccc(OC)c4)c(=O)n(C)c3s2)cc1` [Example 63, 3-(3-Methoxy-benzyl)-1-methyl-2,4-dioxo-1,2,3,4-tetrahydro-thieno[2,3-d]pyrimidine-6-carboxylic acid 4-methoxy-benzylamide], the IC50 was found to be 0.11 µM in assay [1] (setting [9]); 0.11 µM in assay [1] (setting [8]); 30 µM in assay [2]; 30 µM in assay [3]; 18 µM in assay [4]; 30 µM in assay [5]. Also, the IC50 (in assay [6]; at MMP-12CD; in assay [7]) was 30 µM in each case.
Take `COC(=O)c1ccc(Cn2c(=O)c3cc(C(=O)NCc4ccc(OC)cc4)sc3n(C)c2=O)cc1OC` [Example 228, 2-Methoxy-4-[6-(4-methoxy-benzylcarbamoyl)-1-methyl-2,4-dioxo-1,4-dihydro-2H-thieno[2,3-d]pyrimidin-3-ylmethyl]-benzoic acid methyl ester]: the IC50 is 0.435 µM in assay [1] (setting [9]); 0.435 µM in assay [1] (setting [8]); 30 µM in assay [2]; 30 µM in assay [3]; 15 µM in assay [4]; 10 µM in assay [5]. Also, the IC50 (in assay [6]; against MMP-12CD; in assay [7]) was 30 µM each time.
With `CCCCNC(=O)NS(=O)(=O)c1ccc(Cn2c(=O)c3cc(C(=O)NCc4cccc(OC)c4)sc3n(C)c2=O)cc1` [Example 231a], the IC50 in assay [1] (setting [9]) was found to be 0.00895 µM; in assay [1] (setting [8]), 0.009 µM; in assay [3], 50 µM; in assay [4], 13 µM; in assay [5], 46 µM; in assay [6], 91 µM. Besides, the half-maximal inhibitory concentration (IC50) (on MMP-12CD; in assay [7]) was 30 µM in each case.
As to `COc1ccc(CNC(=O)c2cc3c(=O)n(CCOc4ccc(Br)cc4)c(=O)n(C)c3s2)cc1` [Example 232, 3-[2-(4-Bromo-phenoxy)-ethyl]-1-methyl-2,4-dioxo-1,2,3,4-tetrahydro-thieno[2,3-d]pyrimidine-6-carboxylic acid 4-methoxy-benzylamide], the IC50 in assay [1] (setting [9]) was 0.175 µM; in assay [1] (setting [8]), 0.18 µM; in assay [2], 30 µM; in assay [3] it was 30 µM; in assay [4] it was 17 µM; in assay [5] it was 30 µM. Also, the IC50 (in assay [6]; against MMP-12CD; in assay [7]) was 30 µM each time.
As to `COc1cccc(CNC(=O)c2cc3c(=O)n(CCS(=O)(=O)c4ccc(Cl)cc4)c(=O)n(C)c3s2)c1` [Example 246, 3-[2-(4-Chloro-benzenesulfonyl)-ethyl]-1-methyl-2,4-dioxo-1,2,3,4-tetrahydro-thieno[2,3-d]pyrimidine-6-carboxylic acid 3-methoxy-benzylamide], the IC50 came out at 5.65 µM in assay [1] (setting [9]); 5.65 µM in assay [1] (setting [8]); 30 µM in assay [3]; 23 µM in assay [4]; 48 µM in assay [5]; 30 µM in assay [6]. Also, the IC50 on MMP-12CD came out at 30 µM; in assay [7], 36 µM.
For `COC(=O)c1ccc(Cn2c(=O)c3cc(C(N)=O)sc3n(C)c2=O)cc1C` [Example 249a], the IC50 in assay [1] (setting [9]) was 0.64 µM; in assay [1] (setting [8]), 0.64 µM; in assay [3], 30 µM; in assay [5] it was 30 µM; in assay [6], 30 µM; in assay [7], 30 µM.
Consider `Cn1c(=O)n(Cc2ccccc2)c(=O)c2cc(C(=O)OCc3ccncc3)sc21` [Example 303, 3-Benzyl-1-methyl-2,4-dioxo-1,2,3,4-tetrahydro-thieno[2,3-d]pyrimidine-6-carboxylic acid pyridin-4-ylmethyl ester], for which the IC50 came out at 0.0036 µM in assay [1] (setting [9]); 0.0036 µM in assay [1] (setting [8]); 6 µM in assay [4]; 32 µM in assay [5]; 30 µM in assay [6].
As for `COc1ccc(CNC(=O)c2cc3c(=O)n(Cc4ccc([N+](=O)[O-])nc4)c(=O)n(C)c3s2)cc1` [Example 369, 1-Methyl-3-(6-nitro-pyridin-3-ylmethyl)-2,4-dioxo-1,2,3,4-tetrahydro-thieno[2,3-d]pyrimidine-6-carboxylic acid 4-methoxy-benzylamide], the IC50 turned out to be 1.04 µM in assay [1] (setting [9]); 1.04 µM in assay [1] (setting [8]); 10 µM in assay [2]; 30 µM in assay [3]; 10 µM in assay [4]; 30 µM in assay [5]. Besides, the IC50 (in assay [6]; against MMP-12CD; in assay [7]) was 30 µM in each case.

A word on the IC50: it is the concentration at which inhibition is half-maximal.
